Laboratory results from patent US10828305B2 (SHANGHAI PHARMACEUTICALS HOLDING CO., LTD., priority 2016, dated 2020).
Where two headings read alike, the source gives them in different places.

What was measured:
[1] = test system: N87; assay: Proliferation inhibition assay in vitro, N87 (CellTiter-Glo); assay type: cell-based; conditions: Homo sapiens; 72 hours; read-out: IC50(nM) cell N87
Experimental: (§1) Proliferation Inhibition Assay In Vitro of Cell Lines
(§2) 1. Cell culture and inoculation: on the first day of the experiment, normal cultured cells were taken in the exponential growth phase, the cells were dispersed by digesting, then the cell density was adjusted to 8.8×10^4 cells/mL for BT-474 and 6.6×10^4 cells/mL for N87, 90 μl of which were inoculated to each well in a 96-well cell culture plate; after inoculation, the microplate was placed at condition of 37° C., 5% CO2 overnight. 2. Dosing to cells: on the second day of the experiment, the microplate was taken out from incubator, […], of 10× compound was separately added to each well of the microplate, 2 duplicated wells were set for each concentration, 9 dosing concentrations were set for each compound. According to different cell lines, the initial concentration of each compound was different. Upon completion of addition, the microplate was placed at condition of 37° C., 5% CO2 for 72 hours. 3. Data acquisition: the microplate was taken out from the incubator and allowed to stand at room temperature to equilibrate for 30 minutes. 100 μl CellTiter-Glo® Luminescent Cell Viability Assay reaction solution which had been equilibrated at room temperature was added to each well and the microplate was shaken at 1300 rpm for 2 minutes at room temperature. The microplate was centrifuged at 2000 rpm for 1 minute in a HERAEUS Multifuge X1R and then allowed to equilibrate at room temperature for 10 minutes. The […] signal was measured on EnVision™.

[2] = test system: BT-474; assay: Proliferation inhibition assay in vitro, BT-474 (CellTiter-Glo); assay type: cell-based; conditions: Homo sapiens, 72 hours, read-out: IC50(nM) cell BT-474
Experimental: as §1, §2

[3] = target: EGFR kinase (Homo sapiens, UniProt P00533); assay: Enzymatic experiment on EGFR (HTRF kinEASE-TK); assay type: biochemical
EGFR kinase, sequence (P00533 25-1210): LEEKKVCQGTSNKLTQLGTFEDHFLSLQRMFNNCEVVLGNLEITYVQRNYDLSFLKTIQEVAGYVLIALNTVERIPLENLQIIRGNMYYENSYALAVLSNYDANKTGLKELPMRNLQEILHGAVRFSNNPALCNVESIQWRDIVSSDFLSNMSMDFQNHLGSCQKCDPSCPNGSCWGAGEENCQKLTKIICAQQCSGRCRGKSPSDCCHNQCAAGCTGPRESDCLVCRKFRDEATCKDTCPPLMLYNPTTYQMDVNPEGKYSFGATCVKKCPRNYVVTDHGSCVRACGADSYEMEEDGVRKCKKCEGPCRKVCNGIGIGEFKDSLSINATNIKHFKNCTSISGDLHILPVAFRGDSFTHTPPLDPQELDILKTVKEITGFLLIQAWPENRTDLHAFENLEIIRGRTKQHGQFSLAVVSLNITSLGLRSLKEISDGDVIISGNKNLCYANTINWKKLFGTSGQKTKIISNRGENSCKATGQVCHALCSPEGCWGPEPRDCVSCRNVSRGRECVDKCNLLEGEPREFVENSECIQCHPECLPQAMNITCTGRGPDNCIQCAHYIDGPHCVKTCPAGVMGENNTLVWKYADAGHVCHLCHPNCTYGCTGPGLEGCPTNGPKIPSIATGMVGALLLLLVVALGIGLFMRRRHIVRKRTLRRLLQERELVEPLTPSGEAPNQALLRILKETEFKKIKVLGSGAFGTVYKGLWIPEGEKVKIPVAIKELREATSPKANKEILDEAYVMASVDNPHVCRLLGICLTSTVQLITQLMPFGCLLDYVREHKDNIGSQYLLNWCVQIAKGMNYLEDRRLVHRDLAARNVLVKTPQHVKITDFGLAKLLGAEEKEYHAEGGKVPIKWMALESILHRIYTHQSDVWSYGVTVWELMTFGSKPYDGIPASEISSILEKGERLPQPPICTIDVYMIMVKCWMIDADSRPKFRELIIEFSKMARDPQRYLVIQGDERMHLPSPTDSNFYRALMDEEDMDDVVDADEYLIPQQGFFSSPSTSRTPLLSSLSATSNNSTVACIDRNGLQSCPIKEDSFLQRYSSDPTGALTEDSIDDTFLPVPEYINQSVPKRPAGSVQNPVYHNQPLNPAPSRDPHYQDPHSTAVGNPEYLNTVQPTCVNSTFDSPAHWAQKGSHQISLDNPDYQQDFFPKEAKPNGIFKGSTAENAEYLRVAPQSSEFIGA
Method in brief: (§3)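 HTRF kinEASE-TK with biotinylated TK substrate in HEPES pH 7.0 buffer containing MnCl2, MgCl2 and DTT; ErbB2 at 0.06 ng/μl with 4 μM ATP, EGFR at 0.06 units/μl with 1.65 μM ATP, 30 min at room temperature after 5 min enzyme/substrate–compound preincubation. Ten-point 3-fold dilutions; Eu antibody/SA-XL665 detection, 665/620 ratio.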

[4] = target: ErbB2 kinase (Homo sapiens, UniProt P04626); assay: Enzymatic experiment on ErbB2 (HTRF kinEASE-TK); assay type: biochemical
ErbB2 kinase, sequence (P04626 23-1255): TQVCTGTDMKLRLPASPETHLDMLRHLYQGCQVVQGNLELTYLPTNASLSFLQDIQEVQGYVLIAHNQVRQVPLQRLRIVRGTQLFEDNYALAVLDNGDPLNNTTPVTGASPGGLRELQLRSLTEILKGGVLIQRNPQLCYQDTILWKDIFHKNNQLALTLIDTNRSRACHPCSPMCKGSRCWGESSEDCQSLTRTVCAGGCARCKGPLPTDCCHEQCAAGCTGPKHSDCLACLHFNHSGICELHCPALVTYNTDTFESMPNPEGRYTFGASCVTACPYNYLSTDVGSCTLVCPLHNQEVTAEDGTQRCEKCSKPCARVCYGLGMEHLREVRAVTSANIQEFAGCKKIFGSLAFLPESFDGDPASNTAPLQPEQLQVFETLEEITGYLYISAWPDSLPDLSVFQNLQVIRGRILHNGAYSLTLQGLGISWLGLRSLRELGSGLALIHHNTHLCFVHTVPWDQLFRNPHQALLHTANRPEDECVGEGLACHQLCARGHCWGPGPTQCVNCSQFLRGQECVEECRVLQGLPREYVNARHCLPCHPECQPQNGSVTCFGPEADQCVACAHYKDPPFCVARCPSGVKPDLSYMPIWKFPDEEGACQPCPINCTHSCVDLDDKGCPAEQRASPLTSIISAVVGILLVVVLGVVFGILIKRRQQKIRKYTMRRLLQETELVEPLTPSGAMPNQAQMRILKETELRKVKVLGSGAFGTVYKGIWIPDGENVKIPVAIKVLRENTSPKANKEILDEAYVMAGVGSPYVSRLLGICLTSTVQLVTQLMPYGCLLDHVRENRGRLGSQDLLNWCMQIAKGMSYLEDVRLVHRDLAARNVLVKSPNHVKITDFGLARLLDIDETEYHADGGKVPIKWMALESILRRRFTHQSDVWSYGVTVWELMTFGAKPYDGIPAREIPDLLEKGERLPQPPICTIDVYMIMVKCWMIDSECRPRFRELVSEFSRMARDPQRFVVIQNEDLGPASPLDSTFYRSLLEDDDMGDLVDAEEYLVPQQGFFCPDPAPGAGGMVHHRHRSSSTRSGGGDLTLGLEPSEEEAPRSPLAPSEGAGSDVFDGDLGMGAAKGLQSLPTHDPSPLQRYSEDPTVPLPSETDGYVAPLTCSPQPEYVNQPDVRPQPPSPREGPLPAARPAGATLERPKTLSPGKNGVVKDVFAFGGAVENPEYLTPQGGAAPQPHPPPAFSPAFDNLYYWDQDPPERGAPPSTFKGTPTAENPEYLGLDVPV
Method in brief: as §3

[5] = ATP 1.65 μM, read-out: Kinase IC50 (nM) in vitro EGFR
[6] = ATP 4 μM, read-out: Kinase IC50 (nM) in vitro ErbB2

Compound	IC50 [1]	IC50 [2]	IC50 [3, 5]	IC50 [4, 6]	IC50 [3]	IC50 [4]
C=CC(=O)Nc1cncc(-c2ccc3ncnc(Nc4ccc(Oc5cc6nncn6cn5)c(C)c4)c3c2)c1 [Embodiment 52, N-(5-(4-((4-([1,2,4]triazolo[4,3-c]pyrimidin-7-yloxy)-3-methylphenyl)amino)quinazolin-6-yl)pyridin-3-yl)acrylamide]	117 nM	30.4 nM	21.6 nM	2.35 nM		
C=CC(=O)NC/C=C/c1ccc2ncnc(Nc3ccc(Oc4cc5nncn5cn4)c(C)c3)c2c1 [Embodiment 53, (E)-N-(3-(4-((4-([1,2,4]triazolo[4,3-c]pyrimidin-7-yloxy)-3-methylphenyl)amino)quinazolin-6-yl)allyl)acrylamide]	6.2 nM	5.9 nM	57.9 nM	3.58 nM		
C=CC(=O)Nc1ccc(-c2ccc3ncnc(Nc4ccc(Oc5cc6nncn6cn5)c(C)c4)c3c2)cn1 [Embodiment 54, N-(5-(4-((4-([1,2,4]triazolo[4,3-c]pyrimidin-7-yloxy)-3-methylphenyl)amino)quinazolin-6-yl)pyridin-2-yl)acrylamide]	150 nM	32.8 nM	370 nM	6.4 nM		
C=CC(=O)Nc1cc(-c2ccc3ncnc(Nc4ccc(Oc5cc6nncn6cn5)c(C)c4)c3c2)ccn1 [Embodiment 55, N-(4-(4-((4-([1,2,4]triazolo[4,3-c]pyrimidin-7-yloxy)-3-methylphenyl)amino)quinazolin-6-yl)pyridin-2-yl)acrylamide]	122 nM	28.4 nM	15.9 nM	1 nM		
C=CC(=O)Nc1ccc(-c2ccc3ncnc(Nc4ccc(Oc5cc6nncn6cn5)c(C)c4)c3c2)c(C)n1 [Embodiment 56, N-(5-(4-((4-([1,2,4]triazolo[4,3-c]pyrimidin-7-yloxy)-3-methylphenyl)amino)quinazolin-6-yl)-6-methylpyridin-2-yl)acrylamide]	466 nM	35.4 nM	2450 nM	34 nM		
Cc1cc(Nc2ncnc3ccc(NC(=O)/C=C/CN(C)C)cc23)ccc1Oc1cc2nncn2cn1 [Embodiment 57, (E)-N-(4-((4-([1,2,4]triazolo[4,3-c]pyrimidin-7-yloxy)-3-methylphenyl)amino)quinazolin-6-yl)-4-(dimethylamino)-2-butenamide]	12.8 nM	5.6 nM	2.7 nM	1.7 nM		
Cc1cc(Nc2ncnc3ccc(NC(=O)C4CC(Br)=NO4)cc23)ccc1Oc1cc2nncn2cn1 (stereo not shown) [Embodiment 58, N-(4-((4-([1,2,4]triazolo[4,3-c]pyrimidin-7-yloxy)-3-methylphenyl)amino)quinazolin-6-yl)-3-bromo-4,5-dihydroisoxazol-5-carboxamide]	192 nM	352 nM	206 nM	5.4 nM		
Cc1cc(Nc2ncnc3ccc(-c4ccc(CN(C)C)o4)cc23)ccc1Oc1cc2nncn2cn1 [Embodiment 59, N-(4-([1,2,4]triazolo[4,3-c]pyrimidin-7-yloxy)-3-methylphenyl)-6-(5-((dimethylamino)methyl)furan-2-yl)-4-aminoquinazoline]	61.1 nM	281 nM	40.2 nM	5.7 nM		
Cc1cc(Nc2ncnc3ccc(-c4ccc(CO)o4)cc23)ccc1Oc1cc2nncn2cn1 [Embodiment 60, (5-(4-((4-([1,2,4]triazolo[4,3-c]pyrimidin-7-yloxy)-3-methylphenyl)amino)quinazolin-6-yl)furan-2-yl)methanol]	23.4 nM	108 nM	15.6 nM	1.1 nM		
Cc1cc(Nc2ncnc3ccc(-c4ccc(CN5CCN(C)CC5)o4)cc23)ccc1Oc1cc2nncn2cn1 [Embodiment 61]	35.4 nM	48.9 nM	44.7 nM	6 nM		
Cc1cc(Nc2ncnc3ccc(-c4cc(CNCCS(C)(=O)=O)co4)cc23)ccc1Oc1cc2nncn2cn1 [Embodiment 62]	72.4 nM	30 nM	14.2 nM	1.5 nM		
Cc1cc(Nc2ncnc3ccc(-c4ccc(CN5CCS(=O)(=O)CC5)o4)cc23)ccc1Oc1cc2nncn2cn1 [Embodiment 63]	13 nM	12.7 nM	29.5 nM	1.8 nM		
Cc1cc(Nc2ncnc3ccc(-c4cc(CN5CCS(=O)(=O)CC5)co4)cc23)ccc1Oc1cc2nncn2cn1 [Embodiment 64]	42.7 nM	27.6 nM	29 nM	1.6 nM		
Cc1cc(Nc2ncnc3ccc(-c4ccc(CNCCS(N)(=O)=O)o4)cc23)ccc1Oc1cc2nncn2cn1 [Embodiment 65]	63.2 nM	19.8 nM	3.8 nM	1 nM		
Cc1cc(Nc2ncnc3ccc(NC(=O)Oc4ccccc4)cc23)ccc1Oc1cc2nncn2cn1 [Embodiment 66]	487 nM	275 nM			567 nM	12.9 nM
Cc1cc(NC(=O)Nc2ccc3ncnc(Nc4ccc(Oc5cc6nncn6cn5)c(C)c4)c3c2)no1 [Embodiment 67, 1-(4-((4-([1,2,4]triazolo[4,3-c]pyrimidin-7-yloxy)-3-methylphenyl)amino)quinazolin-6-yl)-3-(5-methylisoxazol-3-yl)urea]	264 nM	177 nM	157 nM	3.2 nM		
Cc1cc(Nc2ncnc3ccc(-c4cccc(CNCCS(C)(=O)=O)c4)cc23)ccc1Oc1cc2nncn2cn1 [Embodiment 68]	52 nM	38.7 nM	5.4 nM	2.2 nM		
Cc1cc(NC(=O)Nc2ccc3ncnc(Nc4ccc(Oc5cc6nncn6cn5)c(C)c4)c3c2)n[nH]1 [Embodiment 70, 1-(4-((4-([1,2,4]triazolo[4,3-c]pyrimidin-7-yloxy)-3-methylphenyl)amino)quinazolin-6-yl)-3-(5-methyl-1H-pyrazol-3-yl)urea]	852 nM	172 nM	73.4 nM	3.3 nM		
C=C(F)C(=O)Nc1cccc(-c2ccc3ncnc(Nc4ccc(Oc5cc6nncn6cn5)c(C)c4)c3c2)c1 [Embodiment 71, N-(3-(4-((4-([1,2,4]triazolo[4,3-c]pyrimidin-7-yloxy)-3-methylphenyl)amino)quinazolin-6-yl)phenyl)-2-fluoroacrylamide]	66.4 nM	42.7 nM	20.7 nM	3.5 nM		
Cc1cc(Nc2ncnc3ccc(NC4=NC5(CC5)CO4)cc23)ccc1Oc1cc2nncn2cn1 [Embodiment 72, N′-(4-([1,2,4]triazolo[4,3-c]pyrimidin-7-yloxy)-3-methylphenyl)-N^6-(6-oxa-4-azaspiro[2.4]hept-4-en-5-yl)quinazolin-4,6-diamine]	34.2 nM	30 nM	4.3 nM	0.9 nM		
Cc1cc(Nc2ncnc3ccc(NC(=O)Nc4cc(C)n(C)n4)cc23)ccc1Oc1cc2nncn2cn1 [Embodiment 73, 1-(4-((4-([1,2,4]triazolo[4,3-c]pyrimidin-7-yloxy)-3-methylphenyl)amino)quinazolin-6-yl)-3-(1,5-dimethyl-1H-pyrazol-3-yl)urea]	162 nM	139 nM	34.9 nM	4.21 nM		
Cc1coc(NC(=O)Nc2ccc3ncnc(Nc4ccc(Oc5cc6nncn6cn5)c(C)c4)c3c2)n1 [Embodiment 74, 1-(4-((4-([1,2,4]triazolo[4,3-c]pyrimidin-7-yloxy)-3-methylphenyl)amino)quinazolin-6-yl)-3-(4-methyloxazol-2-yl)urea]	106 nM	85.8 nM	43.3 nM	2.4 nM		
C=CC(=O)Nc1cccc(-c2ccc3ncnc(Nc4ccc(Oc5cc6nncn6cn5)c(C)c4)c3c2)c1 [Embodiment 75, N-(3-(4-((4-([1,2,4]triazolo[4,3-c]pyrimidin-7-yloxy)-3-methylphenyl)amino)quinazolin-6-yl)phenyl)acrylamide]	15 nM	9 nM	19.2 nM	1.34 nM		
Cc1cc(Nc2ncnc3ccc(-c4cccc(NC(=O)/C=C/CN(C)C)c4)cc23)ccc1Oc1cc2nncn2cn1 [Embodiment 76, (E)-N-(3-(4-((4-([1,2,4]triazolo[4,3-c]pyrimidin-7-yloxy)-3-methylphenyl)amino)quinazolin-6-yl)phenyl)-4-(dimethylamino)but-2-enamide]	42.8 nM	27.9 nM	82.2 nM	4.9 nM		
Cc1cc(Nc2ncnc3ccc(-c4cccc(F)c4)cc23)ccc1Oc1cc2nncn2cn1 [Embodiment 77, N-(4-([1,2,4]triazolo[4,3-c]pyrimidin-7-yloxy)-3-methylphenyl)-6-(3-fluorophenyl)-4-aminoquinazoline]	509 nM	254 nM	23.6 nM	5.03 nM		
